Laboratory results from patent US20090252680A1, “NOVEL COMPOUND WITH AFFINITY FOR AMYLOID” (NIHON- MEDI-PHYSICS CO., LTD, priority 2006, published 2009).
Where two headings read alike, the source gives them in different places.

Tests used:
[1] = Measurement of transferability into brain and clearance; conditions: rats, intravenous injection (tail vein); for Radioactive accumulation per unit weight of brain, after 2 min.: 2 min after injection; for Radioactive accumulation per unit weight of brain, after 5 min.: 5 min after injection; for Radioactive accumulation per unit weight of brain, after 30 min.: 30 min after injection; for Radioactive accumulation per unit weight of brain, after 60 min.: 60 min after injection
Experimental: The rats were sacrificed by bleeding from abdominal artery, and brains were removed and subjected to measurement of mass of brains and further subjected to measurement of radioactivity (hereinafter referred to as A in this Example) with a single channel analyzer (detector type: SP-20 manufactured by OHYO KOKEN KOGYO Co., Ltd.) 2, 5, 30 and 60 minutes after the injection. Also, radioactivity (hereinafter referred to as B in this Example) of the remain of the whole body was measured in the same manner as above.
The same procedures as above were performed to calculate radioactive accumulation per unit weight of brain (% ID/g) at the respective time points (Comparative Example 2).
Three animals were used for Example 15, Example 16 and Reference Example 2 at the respective time points.

[2] = Measurement of partition coefficient based on the octanol extraction method; conditions: octanol / 10 mmol/L phosphate buffer (pH 7.4)
Experimental: To 2 mL of octanol, 10 μL each of the prepared sample solutions was respectively added, and 2 mL of a 10 mmol/L phosphate buffer (pH 7.4) was further added, followed by stirring for 30 seconds. After the mixture was centrifuged with a low-speed centrifuge (2000 rpm×60 min.), the octanol layer and the water layer were sampled each in an amount of 1 mL, and subjected to measurement of radioactivity count with an autowell gamma system (Type: ARC-301B, manufactured by Aloka). Using the obtained radioactivity count, logPoctanol was calculated in accordance with the equation (2).

amyloid = conditions: [125I]-labeled compounds; cited from earlier work
[3] = [11C]-labeled, rats; cited from earlier work
[4] = [125I]-labeled, normal mice; cited from earlier work
[5] = biological target: amyloid (aggregated Aβ1-42) (Homo sapiens, UniProt P05067)
Chain of amyloid (aggregated Aβ1-42) (P05067 672-713): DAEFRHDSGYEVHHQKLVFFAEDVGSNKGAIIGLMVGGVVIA
Description: Affinity of the present compounds with amyloid was examined by the following in vitro binding tests.

intracerebral amyloid [6] = biological target: T1, intracerebral amyloid (Homo sapiens, UniProt P05067); assay: Confirmation of imaging of amyloid in brain (autoradiogram of brain slice, amyloid injected into amygdaloid nucleus); format: in vivo, male Wistar rat; conditions: 60 minutes after intravenous injection
T1 construct: Aβ1-42 (manufactured by Wako); purchased Wako
T1 sequence (P05067 672-713): as above
Experimental: (§1) (1) Aβ1-42 (manufactured by Wako) was dissolved in phosphate buffer (pH 7.4) and shaken at 37° C. for 72 hours, to obtain a 1 mg/mL suspension of aggregated Aβ (hereinafter referred to as amyloid suspension in this Example).
(§2) (2) 2.5 μL (corresponding to 25 μg) of the amyloid suspension was injected under thiopental anesthesia into an amygdaloid nucleus on one side of a male Wistar rat (7-week old). As a control, 2.5 μL of a phosphate buffered physiological saline solution (pH 7.4) was injected into an amygdaloid nucleus on the other side of the rat. The rats were examined 1 day after the injection of the amyloid suspension and the phosphate buffered physiological saline solution (pH 7.4).
(§3) This sample solution was injected under thiopental anesthesia into the rat through the tail vein (dosage: 0.5 mL, dosed radioactivity: 16 MBq equivalent).
(§4) (4) Brain was removed 60 minutes after the injection to prepare a brain slice of 10 μm in thickness with a microtome (type: CM3050S, manufactured by LEICA). The brain slice was exposed to an imaging plate for 20 hours, and then image analysis was carried out by use of a Bio-imaging Analyzer (type: BAS-2500; manufactured by FUJIFILM Corporation).
(§5) (5) After the completion of the image analysis using the Bio-imaging Analyzer, pathological staining with Thioflavin T was carried out to perform imaging by use of a fluorescence microscope (manufactured by NIKON Corporation; type: TE2000-U model; excitation wavelength: 400-440 nm; detection wavelength: 470 nm).

intracerebral amyloid [7] = assay: as above; format: in vivo, male Wistar rat; conditions: 60 minutes after intravenous injection, control side
Experimental: as §1, §2, §3, §4, §5

Row | SMILES | Radioactive accumulation per unit weight of brain, after 2 min. [1] [% ID/g] | Radioactive accumulation per unit weight of brain, after 5 min. [1] [% ID/g] | Radioactive accumulation per unit weight of brain, after 30 min. [1] [% ID/g] | Radioactive accumulation per unit weight of brain, after 60 min. [1] [% ID/g] | logPoctanol value [2] | Clearance from normal tissues [4] | Transfer into brain [4] | Accumulation of radioactivity in the amygdaloid nucleus on the side injected with amyloid suspension (intracerebral amyloid [6]) | Accumulation of radioactivity in the amygdaloid nucleus on the side injected with physiological saline solution (intracerebral amyloid [7]) | other results
1 | CN(C)c1ccc(-c2cn3cc([123I])ccc3n2)cc1 [[^123I]-IMPY, reference compound] | 1.19 | 0.97 | 0.23 | 0.09 | 1.9 |  |  |  |  | 
2 | CN(C)c1ccc(-c2cn3cc(I)ccc3n2)cc1 [IMPY, 6-iodo-2-[4′-(N,N-dimethylamino)phenyl]imidazo[1,2-a]pyridine] |  |  |  |  |  |  |  |  |  | Clearance from normal tissues (amyloid): rapid clearance from normal tissues; Transfer to brain and accumulation at amyloid (amyloid): transferring to brain and accumulating at amyloid after administration
3 | CNc1ccc(/C=C/c2ccc(O)cc2)cc1 [SB-13, (E)-4-methylamino-4′-hydroxystilbene] |  |  |  |  |  |  |  |  |  | Clearance from normal tissues [3]: it cannot be said that the clearance is sufficiently fast
4 | CN(C)c1ccc(-c2nc3ccc(I)cc3s2)cc1 [TZDM, 6-iodo-2-[4′-(N,N-dimethylamino)phenyl]benzothiazole] |  |  |  |  |  | insufficient in clearance from normal tissues | transferred into brain 2 minutes after administration |  |  | 
5 | COc1ccc2nc(-c3ccc([125I])cc3)cn2c1 [[^125I]-2-(4′-iodophenyl)-6-methoxyimidazo[1,2-a]pyridine] |  |  |  |  |  |  |  |  |  | Binding to amyloid [5]: capable of binding to amyloid; Radioactive count (A−B) specifically binding to amyloid versus amyloid concentration ([5]; amyloid 25, 62.5, 250, 625 and 1000 nmol/L, 22° C., 3 hours): showed a tendency to increase with increment of the concentration of amyloid
6 | Fc1ccc(-c2cn3cc([123I])ccc3n2)cc1 | 1.00 | 0.72 | 0.12 | 0.05 | 2.3 |  |  | marked accumulation of radioactivity | no significant accumulation of radioactivity | 
7 | COc1ccc(-c2cn3cc([123I])ccc3n2)cc1 | 1.04 | 0.72 | 0.12 | 0.04 | 1.7 |  |  | marked accumulation of radioactivity | no significant accumulation of radioactivity | 
8 | COc1ccc2nc(-c3ccc([123I])cc3)cn2c1 | 1.26 | 0.89 | 0.19 | 0.09 | 2.3 |  |  | marked accumulation of radioactivity | no significant accumulation of radioactivity | 
9 | CN(C)c1ccc(-c2nc3ccc(I)cc3o2)cc1 [IBOX, 6-iodo-2-[4′-(N,N-dimethylamino)phenyl]benzoxazole] |  |  |  |  |  | insufficient in clearance from normal tissues | transferred into brain 2 minutes after administration |  |  | 
10 | CN(C)c1ccc(/C=C/c2ccc(I)cc2)cc1 [m-I-SB, (E)-4-dimethylamino-4′-iodostilbene] |  |  |  |  |  | insufficient in clearance from normal tissues | transferred into brain 2 minutes after administration |  |  | 
